Data set [1] has as its target T1, TGR5 (Homo sapiens, UniProt Q8TDU6).
T1 sequence (Q8TDU6 1-330): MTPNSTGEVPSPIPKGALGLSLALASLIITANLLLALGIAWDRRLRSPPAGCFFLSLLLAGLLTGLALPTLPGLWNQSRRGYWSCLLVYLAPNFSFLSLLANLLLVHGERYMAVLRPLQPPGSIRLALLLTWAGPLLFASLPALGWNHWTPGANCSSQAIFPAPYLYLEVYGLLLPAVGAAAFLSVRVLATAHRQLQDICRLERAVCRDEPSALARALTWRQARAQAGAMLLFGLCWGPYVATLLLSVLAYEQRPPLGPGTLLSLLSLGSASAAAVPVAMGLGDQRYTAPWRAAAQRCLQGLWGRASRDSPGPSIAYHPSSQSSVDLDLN
Kind of data set: TGR5 activity: intracellular cAMP levels, NCI-H716 cells (HTR-FRET). The arrangement: endogenous in cells; host or cells: NCI-H716. The format is cell-based. The settings on record: for Emax: read-out: TGR5 (NCI-H716) Efficacy; for EC50: cAMP. Here is the method: Activation of TGR5 was assessed by measuring the level of cAMP using an HTR-FRET assay. Thus, NCI-H716 cells were cultured on 96-well plates coated with Matrigel (Corning, USA) (0.75 mg/ml) in DMEM supplemented with 10% FCS, 100 units/ml penicillin, and 100 μg/ml streptomycin sulphate. […] The level of intracellular cAMP was determined with Lance kit. Z′ factor was used to validate assays.

Data set [2] can be described thus: Lipophilicity, 1-octanol/water partition coefficient (shake-flask). It counts as physicochemical. The settings on record: pH 8.00, ionized BA. How it is done: The experiments were carried out on 1 mM initial bile salt solution buffered at pH 8.00 with 0.1 M potassium phosphate buffer to ensure complete ionization of the BA. BA concentration in the water phase before and after partition in 1-octanol was measured by HPLC-ESMS/MS as reported below.

Data set [3] addresses T1, TGR5. In words: TGR5 activity: cAMP in hTGR5 CHO-k1 cells. It counts as cell-based. The arrangement: expressed in transfected cells; host or cells: CHO-k1. The following applies: for Emax: 0.5 h, read-out: hTGR5 CHO Efficacy; for EC50: cAMP.
The nature of the next data set: Water solubility. It counts as physicochemical. The following applies: simulated gastric fluid, thermodynamic from solid, 0.1 M HCl, pH 1.00, 25° C., read-out: Ws. Here is the method: BA were suspended in 100 ml of 0.1 M HCl, pH 1.00, and the saturated solutions were transferred to a thermostat-equipped water bath maintained at 25° C. After incubation for 1 week, the solutions were filtered on a Millipore filter ([…]), and the concentration of BA was measured by HPLC-ESMS/MS as reported below.

Data set [4] concerns the target T2, human glutathione transferase-tagged FXR-LBD (Homo sapiens, UniProt Q96RI1).
T2 construct: human glutathione transferase-tagged FXR-LBD (Life Technologies, USA); purchased Life Technologies, USA
T2 sequence (Q96RI1 262-486 limits assumed): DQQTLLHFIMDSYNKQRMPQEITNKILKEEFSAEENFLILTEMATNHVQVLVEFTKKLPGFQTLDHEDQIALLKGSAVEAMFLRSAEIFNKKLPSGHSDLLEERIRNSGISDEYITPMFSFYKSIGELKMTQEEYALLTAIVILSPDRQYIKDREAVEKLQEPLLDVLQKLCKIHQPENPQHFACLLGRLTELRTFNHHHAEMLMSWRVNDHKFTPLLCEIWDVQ
In words: FXR AlphaScreen coactivator recruitment assay (human).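 For hFXR Efficacy: CDCA at 50 µM taken as 100%.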 It counts as biochemical. The arrangement: Emax: dose or concentration left out as unconfirmed. The following applies: for EC50: human FXR-LBD, AlphaScreen, read-out: hFXR EC50; for Emax: read-out: hFXR Efficacy. For orientation: Alpha assays give light when donor and acceptor beads are brought close together.

The next data set deals with T3, mTGR5 (Mus musculus, UniProt Q80SS6).
T3 construct: expressed in transfected cells; host or cells: CHO-Pi10 clone 4
T3 sequence (Q80SS6 1-329): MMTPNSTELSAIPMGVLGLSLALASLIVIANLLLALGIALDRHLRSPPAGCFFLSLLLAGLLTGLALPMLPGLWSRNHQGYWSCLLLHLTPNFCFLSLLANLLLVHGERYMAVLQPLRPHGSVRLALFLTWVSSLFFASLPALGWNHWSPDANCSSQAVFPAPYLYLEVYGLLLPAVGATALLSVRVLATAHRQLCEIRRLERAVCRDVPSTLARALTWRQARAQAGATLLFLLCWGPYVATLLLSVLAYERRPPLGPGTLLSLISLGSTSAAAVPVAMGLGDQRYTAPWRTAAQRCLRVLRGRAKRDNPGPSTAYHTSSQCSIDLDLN
Kind of data set: TGR5 activity: cAMP in mTGR5 CHO-Pi10 clone 4 cells. The format is cell-based. The following applies: for Emax: 0.5 h, read-out: (mTGR5 CHO) Efficacy.

Data set [5] addresses T4, mouse glutathione transferase-tagged FXR-LBD (Mus musculus, UniProt Q60641).
T4 construct: mouse glutathione transferase-tagged FXR-LBD (generated in-house); made in house
T4 sequence (Q60641 264-488 limits assumed): T2 sequence (Q96RI1 262-486 limits assumed) with H7D, F8Y, N46S, V50I, S95A, S98A, N107K, I125V, I174M, H175Y
Kind of data set: FXR AlphaScreen coactivator recruitment assay (mouse). The settings on record: for EC50: read-out: (mFXR) EC50; for Emax: read-out: (mFXR) Efficacy. The format is biochemical.

The target in the next data set is bovine serum albumin (Bos taurus, UniProt P02769). In words: Albumin binding by equilibrium dialysis. The following applies: 5% bovine serum albumin saline solution, 25° C. The format is in vitro ADME. In general terms: Equilibrium dialysis compares concentrations on both sides of a semipermeable membrane.
bovine serum albumin, sequence (P02769 25-607): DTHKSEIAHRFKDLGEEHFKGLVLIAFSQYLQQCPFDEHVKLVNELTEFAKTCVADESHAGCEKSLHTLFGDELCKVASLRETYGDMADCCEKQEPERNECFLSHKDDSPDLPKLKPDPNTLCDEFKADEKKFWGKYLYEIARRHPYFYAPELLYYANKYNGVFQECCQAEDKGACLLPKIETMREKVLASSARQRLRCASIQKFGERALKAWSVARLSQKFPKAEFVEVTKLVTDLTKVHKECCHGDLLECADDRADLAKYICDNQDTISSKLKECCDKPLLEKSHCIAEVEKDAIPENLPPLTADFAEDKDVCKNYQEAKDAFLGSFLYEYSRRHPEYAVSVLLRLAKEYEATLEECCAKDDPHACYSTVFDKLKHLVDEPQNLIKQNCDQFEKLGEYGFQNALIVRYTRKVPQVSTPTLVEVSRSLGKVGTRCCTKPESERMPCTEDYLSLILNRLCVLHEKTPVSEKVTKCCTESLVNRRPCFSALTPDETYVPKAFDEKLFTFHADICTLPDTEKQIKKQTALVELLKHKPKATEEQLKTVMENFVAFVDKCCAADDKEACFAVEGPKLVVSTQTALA
The nature of data set [6]: Critical micellar concentration (surface tension / dye solubilization). It counts as physicochemical.
Experiment in data set [7]: as above
It counts as physicochemical. The following applies: BA sodium salts in 0.1 M NaCl, 25° C.

[8] abbreviates: mTGR5 CHO cells, value in parentheses.
Setting [9] is: mouse FXR-LBD, value in parentheses.

Molecules are shown by their SMILES. Numbering of substitutions follows the chain as printed. Converted amounts (≈) assume the structure as drawn. Where two headings read alike, the source gives them in different places.

As usually defined, the melting point is the temperature of the solid-liquid transition. A word on the EC50: it is the concentration giving half of the maximal effect. By pKa is commonly meant the negative logarithm of the acid dissociation constant.

`CC[C@H]1[C@@H](O)C2C3CC[C@H]([C@H](C)C(F)(F)C(=O)O)[C@@]3(C)CCC2[C@@]2(C)CC[C@@H](O)C[C@@H]12` (stereo partly drawn) (hydrate or solvate) returned a melting point of 254 to 256 °C.

With `CC[C@H]1[C@@H](O)[C@@H]2[C@H](C[C@H](O)[C@]3(C)[C@@H]([C@H](C)C[C@@H](F)C(=O)O)CC[C@@H]23)[C@@]2(C)CC[C@@H](O)C[C@@H]12` [Compound 9, 3α,7α,12α-Trihydroxy-6α-ethyl-23(R)-fluoro-5β-cholan-24-oate], the Emax at TGR5 [1] (1 h, NCI-H716 cells, Ref. LCA 100% at 10 μM) stood at 75 ± 6%; at TGR5 [3] (hTGR5 CHO cells, Ref. LCA 100% at 10 μM), 98 ± 2%; in data set [4] it was 147 ± 20%; on mTGR5 (setting [8]) it was 90%; in data set [5] (setting [9]), 127%. Also, the 50% effective concentration (EC50) at TGR5 [1] (NCI-H716 cells) was 22000 ± 3000 nM; on TGR5 [3] (hTGR5 CHO cells) it was 1400 ± 300 nM; in data set [4], 2900 ± 900 nM; on mTGR5 (setting [8]), 1800 nM; in data set [5] (setting [9]), 55000 nM. Moreover, in data set [2], the “LogPA−” value is 0.2. Moreover, the pKa in the data set “pKa” was determined as 2.82. Besides, the solubility thermodynamic at 1 week in the data set “Water solubility” was 469 µM (≈ 213 µg/mL). In addition, the “Albumin binding (%)” value at bovine serum albumin came out at 89%. The same compound displayed a CMpH in data set [6] of 3.9. In data set [7], the CMC was found to be 6 mM.

For the compound `CC[C@H]1[C@@H](O)C2C3CC[C@H]([C@H](C)CC(=O)NCCO)[C@@]3(C)CCC2[C@@]2(C)CC[C@@H](O)C[C@@H]12` (stereo partly drawn) [Compound 19, 3α,7α-Dihydroxy-6α-ethyl-N-(2-hydroxyethyl)-24-nor-5β-cholan-23-amide], the Emax at TGR5 [1] (NCI-H716, 1 h) turned out to be 128 ± 1%; on TGR5 [3] (CHO), 105 ± 2%; in [4], 137 ± 2%; on mTGR5 (CHO), 106%; in [5] it was 122%. For the same compound, the EC50 was found to be 160 ± 10 nM at TGR5 [1] (NCI-H716 cells); 20 ± 8 nM on TGR5 [3] (hTGR5 CHO cells); 3000 ± 1000 nM in data set [4]; 80 nM at mTGR5 (setting [8]); 10000 nM in [5] (setting [9]). Moreover, in data set [2], the “LogPA−” value amounted to 1.0. Moreover, the pKa in “pKa” came out at 14.3. The solubility thermodynamic at 1 week in “Water solubility” was 2150 µM (≈ 967 µg/mL). Besides, the “Albumin binding (%)” value on bovine serum albumin is given as 51%. In addition, the CMpH in data set [6] is recorded as 1.3. The CMC in [7] came out at 5 mM.

The record behind these values is patent US10800807B2, “TGR5 modulators and methods of use thereof” (Intercept Pharmaceuticals, Inc., priority 2015, dated 2020).
